Results as given in patent US10280171B2, “Heterocyclic inhibitors of PTPN11” (priority 2016, dated 2019).
Where a name gives a salt, the structure may show the parent alone. Read-outs that look alike come from different tables or passages of the source.

Legend:
[1] = biological target: PTPN11-E76K mutant enzyme (Homo sapiens (Human), UniProt Q06124, E76K); assay: PTPN11 Enzymatic Assay (DiFMUP phosphatase activity); assay type: biochemical; settings: full length PTPN11-E76K mutant enzyme 250 pM, DiFMUP 50 μM, 30 min preincubation; read-out: PTPN11-E76K Avg IC50
Experimental: Reaction was initiated by addition of DiFMUP (50 μM) at room temperature in 384-well black plate with a final reaction volume of 20 uL in assay buffer. […] Dose-response curves were analyzed using IC50 regression curve fitting (GeneData Screener). Curves were normalized to a high controls without inhibitor, and low controls without enzyme.

[2] = system: Phospho-ERK levels in KYSE-520 cells; assay: pERK AlphaScreen Protocol; assay type: cell-based; settings: Homo sapiens, KYSE-520, 2 h, read-out: PERK Avg IC50
Experimental: KYSE-520 cells (10 k cells/well) were grown in 384-well plate in 20 uL of medium (RPMI-1640, without phenol red, containing 10% FBS) at 37° C. with 5% CO2 overnight. DMSO (control) or increasing concentrations of compounds were diluted in medium, added to the 384-well plate (5 uL/well, final DMSO concentration of 1%), and cells were then incubated with compounds for 2 hr. Phospho-ERK levels were measured using phospho-ERK1/2 AlphaScreen SureFire (PerkinElmer, TGRESB10K) following manufacturer's recommendations. Dose-response curves were analyzed using IC50 regression curve fitting (GeneData Screener). Curves were normalized to a high control without inhibitor (DMSO only), and low control (1 μM selumetinib).

[3] = KYSE-520 cells, 2 hr compound incubation, phospho-ERK1/2 AlphaScreen SureFire

Chain of PTPN11-E76K mutant enzyme (Q06124 whole entry E76K): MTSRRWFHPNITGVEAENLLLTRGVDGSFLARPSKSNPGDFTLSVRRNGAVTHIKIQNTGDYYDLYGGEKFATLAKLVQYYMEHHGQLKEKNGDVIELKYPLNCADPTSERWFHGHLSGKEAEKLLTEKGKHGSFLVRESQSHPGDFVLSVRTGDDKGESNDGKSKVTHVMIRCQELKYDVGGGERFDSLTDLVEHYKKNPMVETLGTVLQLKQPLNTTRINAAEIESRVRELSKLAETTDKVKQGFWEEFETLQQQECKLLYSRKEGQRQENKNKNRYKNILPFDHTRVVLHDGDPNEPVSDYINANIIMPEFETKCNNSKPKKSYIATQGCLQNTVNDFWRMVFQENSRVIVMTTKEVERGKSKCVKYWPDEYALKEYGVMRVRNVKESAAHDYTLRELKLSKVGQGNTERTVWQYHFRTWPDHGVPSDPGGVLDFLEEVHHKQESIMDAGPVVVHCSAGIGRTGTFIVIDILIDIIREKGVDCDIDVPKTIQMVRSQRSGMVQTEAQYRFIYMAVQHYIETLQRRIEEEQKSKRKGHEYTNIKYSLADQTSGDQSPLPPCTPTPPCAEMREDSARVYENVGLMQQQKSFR

| Structure (SMILES) | IC50 [1] [nM] | IC50 [2, 3] [nM] | IC50 [2] [nM] |
| --- | --- | --- | --- |
| Clc1cccc(-c2n[nH]c3nc(N4CCC5(CCN5)CC4)cnc23)c1Cl [Example 7, 3-(2,3-dichloro-phenyl)-6-(1,7-diaza-spiro[3.5]nonan-7-yl)-1H-pyrazolo[3,4-b]pyrazine] | 196 | 79 | – |
| NCC1(O)CCN(c2cnc3c(-c4cccc(Cl)c4Cl)n[nH]c3n2)CC1 [Example 8, 4-(aminomethyl)-1-(3-(2,3-dichloro-phenyl)-1H-pyrazolo[3,4-b]-pyrazin-6-yl)-piperidin-4-ol] | 204 | 86 | – |
| CC1(CN)CCN(c2cnc3c(-c4cccc(Cl)c4)n[nH]c3n2)CC1 [Example 9, (1-(3-(3-chloro-phenyl)-1H-pyrazolo[3,4-b]-pyrazin-6-yl)-4-methylpiperidin-4-yl)methanamine] | 367 | 482 | – |
| CC1(N)CCN(c2cnc3c(-c4cccc(Cl)c4)n[nH]c3n2)CC1 [Example 10, 1-(3-(3-chloro-phenyl)-1H-pyrazolo[3,4-b]-pyrazin-6-yl)-4-methylpiperidin-4-amine] | 333 | 172 | – |
| CC1(CN)CCN(c2cnc3c(-c4cc(Cl)cc(Cl)c4)n[nH]c3n2)CC1 [Example 11, (1-(3-(3,5-dichloro-phenyl)-1H-pyrazolo[3,4-b]-pyrazin-6-yl)-4-methylpiperidin-4-yl) methanamine] | 632 | 1170 | – |
| CC1(N)CCN(c2cnc3c(-c4cc(Cl)cc(Cl)c4)n[nH]c3n2)CC1 [Example 12, 1-(3-(3,5-dichloro-phenyl)-1H-pyrazolo[3,4-b]-pyrazin-6-yl)-4-methylpiperidin-4-amine] | 404 | 623 | – |
| CC1(CN)CCN(c2cnc3c(-c4ccc(Cl)c(Cl)c4)n[nH]c3n2)CC1 [Example 13, (1-(3-(3,4-dichloro-phenyl)-1H-pyrazolo[3,4-b]-pyrazin-6-yl)-4-methylpiperidin-4-yl) methanamine] | 158 | 562 | – |
| CC1(CN)CCN(c2cnc3c(-c4ccc(F)c(Cl)c4)n[nH]c3n2)CC1 [Example 14, (1-(3-(3-Chloro-4-fluorophenyl)-1H-pyrazolo[3,4-b]-pyrazin-6-yl)-4-methylpiperidin-4-yl) methanamine] | 521 | 569 | – |
| CC1(N)CCN(c2cnc3c(-c4ccc(Cl)cc4)n[nH]c3n2)CC1 [Example 15, 1-(3-(4-Chlorophenyl)-1H-pyrazolo[3,4-b]pyrazin-6-yl)-4-methylpiperidin-4-amine] | 140 | 103 | – |
| CC1(CN)CCN(c2cnc3c(-c4ccc(Cl)cc4)n[nH]c3n2)CC1 [Example 16] | 169 | 309 | – |
| N[C@@H]1CCCC12CCN(c1cnc3c(-c4ccc(Cl)cc4)n[nH]c3n1)CC2 [Example 17, (R)-8-(3-(4-chloro-phenyl)-1H-pyrazolo[3,4-b]-pyrazin-6-yl)-8-aza-spiro[4.5]decan-1-amine] | 118 | 82 | – |
| CC1(N)CCN(c2cnc3c(-c4ccc(Cl)c(Cl)c4)n[nH]c3n2)CC1 [Example 18, 1-(3-(3,4-dichloro-phenyl)-1H-pyrazolo[3,4-b]-pyrazin-6-yl)-4-methylpiperidin-4-amine] | 141 | 667 | – |
| CC1(N)CCN(c2cnc3c(-c4ccc(F)c(Cl)c4)n[nH]c3n2)CC1 [Example 19, 1-(3-(3-Chloro-4-fluorophenyl)-1H-pyrazolo[3,4-b]-pyrazin-6-yl)-4-methylpiperidin-4-amine] | 510 | 534 | – |
| CC1(N)CCN(c2cnc3c(-c4ccccc4Cl)n[nH]c3n2)CC1 [Example 20, 1-(3-(2-Chlorophenyl)-1H-pyrazolo[3,4-b]pyrazin-6-yl)-4-methylpiperidin-4-amine] | 326 | 158 | – |
| CC1(N)CCN(c2cnc3c(-c4cccc(C(F)(F)F)c4)n[nH]c3n2)CC1 [Example 21, 4-Methyl-1-(3-(3-(trifluoromethyl)phenyl)-1H-pyrazolo[3,4-b]pyrazin-6-yl)piperidin-4-amine] | 956 | 620 | – |
| CC1(CN)CCN(c2cnc3c(-c4cccc(C(F)(F)F)c4)n[nH]c3n2)CC1 [Example 22, (4-methyl-1-(3-(3-(trifluoromethyl)-phenyl)-1H-pyrazolo[3,4-b]pyrazin-6-yl)-piperidin-4-yl)-methanamine] | 1750 | 976 | – |
| CC1(N)CCN(c2cnc3c(-c4cccnc4Cl)n[nH]c3n2)CC1 [Example 23, 1-(3-(2-chloro-pyridin-3-yl)-1H-pyrazolo[3,4-b]-pyrazin-6-yl)-4-methyl-piperidin-4-amine] | 1820 | 428 | – |

| Structure (SMILES) | IC50 [1] [nM] | IC50 [2, 3] [nM] | IC50 [2] [nM] |
| --- | --- | --- | --- |
| CC1(N)CCN(c2cnc3c(-c4cccc(F)c4Cl)n[nH]c3n2)CC1 [Example 24, 1-(3-(2-chloro-3-fluorophenyl)-1H-pyrazolo[3,4-b]-pyrazin-6-yl)-4-methyl-piperidin-4-amine] | 204 | 142 | – |
| CC1(CN)CCN(c2cnc3c(-c4cccc(Cl)c4F)n[nH]c3n2)CC1 [Example 25, (1-(3-(3-Chloro-2-fluorophenyl)-1H-pyrazolo[3,4-b]pyrazin-6-yl)-4-methylpiperidin-4-yl)-methanamine] | 101 | 47 | – |
| COc1cccc(-c2n[nH]c3nc(N4CCC(C)(CN)CC4)cnc23)c1Cl [Example 27, (1-(3-(2-chloro-3-methoxy phenyl)-1H-pyrazolo[3,4-b]pyrazin-6-yl)-4-methylpiperidin-4-yl) methanamine] | 80 | 55 | – |
| Cc1c(Cl)cccc1-c1n[nH]c2nc(N3CCC(C)(CN)CC3)cnc12 [Example 28, (1-(3-(3-chloro-2-methylphenyl)-1H-pyrazolo[3,4-b]-pyrazin-6-yl)-4-methylpiperidin-4-yl) methanamine] | 142 | 190 | – |
| CC1(CN)CCN(c2cnc3c(-c4ccccc4Cl)n[nH]c3n2)CC1 [Example 29] | 178 | 87 | – |
| Cc1ncccc1-c1n[nH]c2nc(N3CCC(C)(CN)CC3)cnc12 [Example 30, (4-methyl-1-(3-(2-methylpyridin-3-yl)-1H-pyrazolo[3,4-b]pyrazin-6-yl)-piperidin-4-yl) methanamine] | 2510 | 1600 | – |
| CC1(CN)CCN(c2cnc3c(-c4ccncc4Cl)n[nH]c3n2)CC1 [Example 31, (1-(3-(3-chloro-pyridin-4-yl)-1H-pyrazolo[3,4-b]-pyrazin-6-yl)-4-methylpiperidin-4-yl) methanamine] | 929 | 710 | – |
| COc1cc(-c2n[nH]c3nc(N4CCC(C)(CN)CC4)cnc23)ccc1Cl [Example 33, (1-(3-(4-Chloro-3-methoxyphenyl)-1H-pyrazolo[3,4-b]pyrazin-6-yl)-4-methylpiperidin-4-yl)methanamine] | 72 | 96 | – |
| COc1cc(Cl)cc(-c2n[nH]c3nc(N4CCC(C)(CN)CC4)cnc23)c1 [Example 35, (1-(3-(3-chloro-5-methoxyphenyl)-1H-pyrazolo[3,4-b]-pyrazin-6-yl)-4-methylpiperidin-4-yl) methanamine] | 304 | 704 | – |
| CC1(CN)CCN(c2cnc3c(-c4cccnc4Cl)n[nH]c3n2)CC1 [Example 36, (1-(3-(2-chloro-pyridin-3-yl)-1H-pyrazolo[3,4-b]-pyrazin-6-yl)-4-methylpiperidin-4-yl) methanamine] | 967 | 320 | – |
| NCC1(O)CCN(c2cnc3c(-c4cccc(F)c4Cl)n[nH]c3n2)CC1 [Example 37, 4-(Aminomethyl)-1-(3-(2-chloro-3-fluorophenyl)-1H-pyrazolo[3,4-b]pyrazin-6-yl)-piperidin-4-ol] | 623 | 223 | – |
| N[C@@H]1COCC12CCN(c1cnc3c(-c4ccccc4Cl)n[nH]c3n1)CC2 [Example 39, (S)-8-(3-(2-chloro-phenyl)-1H-pyrazolo[3,4-b]-pyrazin-6-yl)-2-oxa-8-azaspiro[4.5]-decan-4-amine] | 158 | 103 | – |
| N[C@@H]1COCC12CCN(c1cnc3c(-c4c(F)cccc4Cl)n[nH]c3n1)CC2 [Example 40, (4S)-8-(3-(2-Chloro-6-fluorophenyl)-1H-pyrazolo[3,4-b]-pyrazin-6-yl)-2-oxa-8-azaspiro[4.5]-decan-4-amine] | 203 | 186 | – |
| N[C@@H]1COCC12CCN(c1cnc3c(-c4cccnc4Cl)n[nH]c3n1)CC2 [Example 41, (S)-8-(3-(2-chloro-pyridin-3-yl)-1H-pyrazolo[3,4-b]-pyrazin-6-yl)-2-oxa-8-azaspiro[4.5]-decan-4-amine trifluoroacetate] | 966 | – | 394 |
| N[C@@H]1CCCC12CCN(c1cnc3c(-c4cccc(Cl)c4)n[nH]c3n1)CC2 [Example 44, (R)-8-(3-(3-chloro-phenyl)-1H-pyrazolo[3,4-b]-pyrazin-6-yl)-8-aza-spiro[4.5]-decan-1-amine] | 429 | 304 | – |
| N[C@@H]1CCCC12CCN(c1cnc3c(-c4cc(Cl)cc(Cl)c4)n[nH]c3n1)CC2 [Example 45, (R)-8-(3-(3,5-dichloro-phenyl)-1H-pyrazolo[3,4-b]-pyrazin-6-yl)-8-aza-spiro[4.5]decan-1-amine] | 355 | 1420 | – |
